Data reported in US12435056B2, “N-lipoic-amino acid or peptide, derivatives and their uses” (NEOSTRATA COMPANY, INC., priority 2016, dated 2025).
Entries after “also recorded” stand apart in the source; their conditions may differ.

Legend:
[1] = test system: MelanoDerm keratinocyte-melanocyte co-cultures; test: MelanoDerm study: melanin content and skin lightening in 3D keratinocyte-melanocyte co-cultures; format: cell-based, human; settings: for decrease of melanin content compared to control: darkly pigmented MelanoDerm
Method: (§1) MelanoDerms are co-culture models of keratinocytes and melanocytes and were used to test the ability of L20 as an anti-melanogenic compound. MelanoDerms were derived from a normal adult with darkly pigmented skin. These tissues were treated for two weeks on consecutive days with different doses of L20. One set of cultures were used for regression study, where it was taken off L20 after a week of treatment. Two weeks after treatment, the tissues were tested for melanin content and cell viability (FIG. 2a). […] The melanin content was assayed using a melanin standard curve.
(§2) MelanoDerm Study: MelanoDerms study was performed as per company instructions (Mattek, Ashland, MA). MelanoDerm tissues were derived from darkly pigmented skin type. The tissues were stabilized for 24 h and then treated with different doses of L20 (25 ul) in WEP modified vehicle. The MelanoDerms were treated for 2 weeks on consecutive days. Microscopic images were taken every other day. After two weeks, MTT assay was performed using Cell Titer 96® Aqueous One Solution and melanin content was assayed as mentioned in the protocol.

[2] = test system: normal human epidermal melanocytes; test: Cell viability / L20 toxicity assay (Cell Titer 96 Aqueous One Solution); format: cell-based
Method: (§3) L20 is a glycinamide derivative of lipoic acid and was treated on normal human epidermal melanocytes at different doses for 48 h. Doses more than 0.05% L20 appeared to have moderate toxicity (FIG. 1a). We determined the ability of L20 to inhibit melanin synthesis in melanocyte cultures. L20 was used at a non-toxic dose of 0.001% for 7 days (FIG. 1b), their treatment was carried on consecutive days. After a week of treatment, the melanin was extracted and quantified using a melanin standard curve.
Cell culture: Normal human epidermal melanocytes (Lonza, Walkersville, MA) were grown in special melanocyte media MGM4 with supplements (Lonza, Walkersville, MA). Cells were plated and treated with different doses of L20 for 48 h. L20 was initially dissolved in DMSO (100%) and serial dilution were made in media. The stock was diluted a 1000 fold, to have less than […] DMSO in final solution. Microscopic images were taken using 10× magnification. Normal human dermal fibroblasts (Lonza, Walkersville, MA) were grown in special fibroblast growth media (Lonza, Walkersville, MA). […] To test cell viability, Cell Titer 96® Aqueous One Solution Cell Proliferation Assay was used and absorbance was measured colorimetrically at 490 nm using Tecan microplate reader.

[3] = test system: normal neonatal human epidermal melanocytes; test: Melanin reduction assay in melanocyte cultures; format: cell-based
Method: as §3
Melanin Reduction assay: Normal human epidermal melanocytes were treated with control or L20 for 7 days, and L20 was replaced on consecutive days. Cells were collected on the 7th day and maintained in Solvable (Perkin Elmer, Akron, OH) overnight at 65 degrees overnight. In parallel, melanin (Sigma, St. Louis, MO) standards were made in Solvable and treated similarly to the samples. Melanin content was then quantified colorimetrically using a Tecan microplate reader at 490 nm.

[4] = test system: MelanoDerm keratinocyte-melanocyte co-cultures; test: MelanoDerm survival (MTT assay); format: cell-based, human; settings: L20 0.5%, two weeks
Method: as §1, §2

[5] = test system: procollagen in EpiDerm-FT fibroblast-keratinocyte co-cultures; test: Procollagen ELISA in EpiDerm-FT tissue; format: cell-based, human; settings: L20 1% in WEP vehicle, 48 h, p<0.02, FIG. 3
Method: Dermal fibroblast plays an important role in photo-aging and skin homeostasis. We determined if L20 had any anti-aging benefit using dermal fibroblasts. Normal human EpiDerm-FT tissue was used in the study. The Epiderm-FT consists of a fully differentiated epidermal and dermal skin layers. It also has 10-15 layers of stratum corneum and also basal, spinous and granular layers. The tissues were treated with vehicle control and L20 (1%), for 48 h. The tissues were used to measure the expression of procollagen using ELISA assay. The levels of procollagen were normalized to total protein.
L20 was prepared as 1% solution in WEP vehicle consisting of water, ethanol and propylene glycol at native pH. […] The tissue samples were digested using cell lysis buffer and the expression levels of procollagen protein were determined. Procollagen was quantified using standard ELISA technique (Takara Bio Inc.).
Epiderm Study: Epiderm-FT (Mattek, Ashland, MA) was used for the study, derived from neonatal foreskin. […] The cell lysate was analyzed for procollagen using ELISA (Takara, Shiga, Japan) as per instructions and normalized to total protein.

| Structure (SMILES) | decrease of melanin content ([1]; positive control, dose not given, two weeks, MelanoDerm) [%] | non-toxic dose in L20 toxicity assay ([2]; different doses, absorbance at 490 nm) [%] | doses with moderate toxicity ([2]; human, 48 h) | melanin extracted and quantified from melanocyte cultures ([3]; L20 0.001%, 7 days, versus untreated and DMSO control, FIG. 1c) | melanin synthesis ([3]; normal neonatal human epidermal melanocytes, FIGS. 1a-c) | visual skin-lightening effect on melanoderms ([1]; 0.5% and 1%, two weeks, FIG. 2b) | regression study: reversibility of melanin inhibition after removal of L20 ([1]; 0.5% dose group, taken off L20 after one week of treatment) | microscopic observation of melanin ([1]; 24 h after the initial treatment) | decrease of melanin content compared to control ([1]; L20 0.1%, two weeks) [%] | decrease of melanin content compared to control ([1]; L20 0.5%, two weeks) [%] | decrease of melanin content compared to control ([1]; L20 1%, two weeks) [%] | melanin synthesis ([1]; normal adult human Melanoderm 3D co-cultures, FIGS. 2a-d) | toxicity in MelanoDerm (cell viability) [4] | procollagen production versus vehicle control, normalized to total protein [5] |
| --- | --- | --- | --- | --- | --- | --- | --- | --- | --- | --- | --- | --- | --- | --- |
| O=c1cc(CO)occ1O [Kojic Acid, reference compound] | 27 | – | – | – | – | – | – | – | – | – | – | – | – | – |
| NC(=O)CNC(=O)CCCCC1CCSS1 (centres unmarked) [L20, N-lipoic glycinamide] | – | ≤ 0.001 | more than 0.05% | no detectable melanin; also recorded: did not have any measureable melanin | significantly blocks melanin synthesis | significant skin-lightening effect | reversible inhibition of melanin synthesis | decreased melanin; also recorded: inhibited melanin synthesis | 44 | 56 | 60 | significantly blocks melanin synthesis | non-toxic | significantly increased; also recorded: significantly induces procollagen synthesis; also recorded: induced pro-collagen |
